From patent publication US20230355536A1, “OZONE-BASED LOW TEMPERATURE SILICON OXIDE COATING FOR PHARMACEUTICAL APPLICATIONS” (Applied Materials, Inc., priority 2022, published 2023)

Key:
Format in all cases: physicochemical
[1] = Wetting/dispersity of particles in DI water; conditions: acetaminophen particles dissolved into DI water
Experimental: The coated API (acetaminophen) particles were dissolved into DI water to test the wetting/dispersity properties of these particles.
As a control group, API (acetaminophen) was also treated with silane to apply a monolayer of silane.

[2] = FTIR spectrum of API particles before and after coating process; conditions: coated versus uncoated API particles
Description: FIGS. 2A-2B (FIG. 2B is a zoom-in image of FIG. 2A) show the FTIR spectrum of the coated and uncoated acetaminophen API particles.
FIGS. 6A-6B (FIG. 6B is a zoom-in image of FIG. 6A) show the FTIR spectrum of the coated and uncoated theophylline API particles.
FIGS. 9A-9B (FIG. 9B is a zoom-in image of FIG. 9A) show the FTIR spectrum of the coated and uncoated API-1 particles.

[3] = HPLC analysis of API integrity after ozone treatment; conditions: ozone generated with oxygen flow rate of 10, 30 and 50 sccm
Experimental: To test whether ozone treatment will affect the integrity of the API, the API (acetaminophen) was treated with ozone at various concentrations. Here, ozone was created by an ozone generator with various oxygen flow rates. The lower the oxygen flow rate, the high the ozone concentration is. Specifically, the API (acetaminophen) was treated with ozone generated with an oxygen flow rate of 10 sccm, 30 sccm and 50 sccm. FIGS. 8A-8D show the HPLC analysis of the API (acetaminophen) after ozone treatment. […] As shown in FIGS. 8A-8D, there were no new peaks (impurity) generated after ozone exposure with as low as 10 sccm oxygen flow rate (highest O3 concentration)

| wetting/dispersity [1] | change in FTIR signals before and after the coating process [2] | new peaks (impurity) in HPLC after ozone exposure [3] | Compound |
| --- | --- | --- | --- |
| poor wetting/dispersity | no significant change | no new peaks | CC(=O)Nc1ccc(O)cc1 [acetaminophen] |
|  | no significant change |  | Cn1c(=O)c2[nH]cnc2n(C)c1=O [theophylline, reference compound] |
